Measured values: patent US7632801B2, “Identification and use of antiviral compounds that inhibit interaction of host cell proteins and viral proteins required for viral replication” (Mount Sinai School of Medicine of New York University, priority 1995, dated 2009)

Test system: Influenza A/WSN/Virus
Type: cell-based

Substance: Ala Ser Gln Gly Thr Lys Arg Ser Tyr Glu Gln Met Glu Thr Asp Gly Glu Arg Gln (ASQGTKRSYEQMETDGERQ; listed as Homo sapiens) [NP-NLS oligopeptide, 19-amino acid NP-NLS oligopeptide corresponding to amino acids 2-20 of NP]
- inhibition of viral growth (hemagglutination titer): thousand-fold
